Data on two molecules can be found in PMC8362126, “Proteolysis Targeting Chimera (PROTAC) for Macrophage Migration Inhibitory Factor (MIF) Has Anti‐Proliferative Activity in Lung Cancer Cells” (Angewandte Chemie (International Ed. in English), 2021).

In test [1] the target is T1, MIF (Homo sapiens, UniProt P14174).
T1 sequence (P14174 2-115 limits assumed): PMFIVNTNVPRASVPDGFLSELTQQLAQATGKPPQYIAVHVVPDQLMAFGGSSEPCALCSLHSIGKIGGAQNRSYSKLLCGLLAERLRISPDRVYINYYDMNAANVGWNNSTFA
The test is described as follows: MIF degradation in A549 cells, cell lysate-based ELISA. Also on record: endogenous in cells; host or cells: A549 (ATCC CCL-185). The conditions noted are these: A549 cells; for degradation [%] 2 μM: vs DMSO, mean±SD n=3. The procedure:
In addition, A549 cells have been successfully used for assessing activity of cereblon ligand‐based PROTACs previously.[42] Therefore, A549 is a suitable cell line for evaluating the effect of our putative MIF‐directed PROTACs MD1 to MD12 on MIF protein levels. The reduction in MIF levels were monitored in A549 cells that were treated with two different PROTAC concentrations (20 and 2 μM) for 12 h in order to estimate the dose dependency, which is important for PROTACs because of the Hook effect.[35] The MIF levels in cell lysates were analyzed using an enzyme‐linked immunosorbent assay (ELISA).
S3. ELISA screening of MIF protein level on MIF-directed PROTACs
Cell culture. Human A549 lung cancer cells (ATCCCCL-185) or HEK293 kidney […]
containing 10% (v/v) fetal bovine serum (FBS), 100 U/mL penicillin/streptomycin […]
ELISA. 7×10^5 A549 cells per well were plated in 6-well plates. The next day, cells were treated with a solution of compounds or the vehicle for 12 h. Subsequently, the culture medium was removed and cells were washed twice with cold PBS and collected after trypsin (0.5 mL) degestion. Cells were then lyzed in lysis buffer (150 mM NaCl, 50 mM Hepes pH 7.5, 5 mM EDTA, 0.1% (w/v) NP40) containing protease inhibitor cocktail (Roche, #11836153001) and resuspended vigourously. The supernatant was collected after spinning down at 16 000g at 4 °C for 30 min. The total protein concentration was determined with PierceTM BCA protein assay kit ( ThermoFisher , #23225). The protein concentration was normalized between samples. The relative MIF levels from 1µg total protein were determined by ELISA with the human MIF DuoSet ELISA kit according to the instructions of the manufacturer (R&D systems, #DY289).
Figure S1. Screening of compounds for MIF degradation activity by cell lysate -based ELISA.
A549 cells were treated with compounds at (A) 20 or (B) 2 µM for 12 h. Data was normalized […]
(1 picture or pasted object on this page, not shown here)
A general note: An ELISA detects its analyte on a solid surface through an enzyme-linked reagent.

The target in test [2] is T1, MIF. The test can be described thus: MIF degradation in HEK293 cells, western-blot. The test is classed as cell-based. Details: endogenous in cells. Conditions: 200 nM.
Test [3] addresses T1, MIF. The test is described as follows: MIF immunofluorescence staining, confocal microscopy. The format is cell-based. Details: endogenous in cells; host or cells: A549 (ATCC CCL-185). The conditions noted are these: A549 cells, 1 μM, 12 hours. An excerpt:
Since PROTACs are relatively large heterobifunctional molecules, the efficacy of these compounds may be limited by poor cell permeability.[47] In order to estimate the cellular uptake of PROTAC MD13, the intrinsic fluorescence properties of the pomalidomide part of MD13 were employed for visualization of its subcellular localization. […] In parallel, the subcellular localization of MIF and its decrease in situ upon MD13 treatment was visualized by confocal fluorescence microscopy using a fluorescent secondary antibody.
S5. Subcellular colocalization study
To visualize the intracellular location of MD13 and MIF protein, immunofluorescence staining was applied. A549 cells were seeded on glass coverslips in a 6-well plate at a density of 1x10^5 cells per well. After overnight incubation, cells were treated with 1 µM MD13 for 1 hour to study the internalization of MD13 or 12 hours to study the degradation of MIF protein.
The cells with 1-hour treatment were fixed with methanol before coverslips were mounted onto slides with anti-fading mounting medium with DAPI stain (Invitrogen, Waltham, MA. USA).
To visualize MIF protein, cells after 12-hour treatment were fixed with methanol and then unspecific binding was blocked with blocking buffer (1% BSA, 22.52 mg/mL glycine in 0.1%PBST). […]
USA). […] The pictures were acquired using a Leica SP8 confocal laser scanning microscope and analyzed by ImageJ. […]

Where “and” joins values, the source holds several entries; their conditions need not be identical. Equal entries are not always repeated.

`CN1C(=O)CCC(N2C(=O)c3cccc(NCCCCCCCC(=O)Nc4ccc(N5Cc6ccc(O)cc6OC5=O)cc4)c3C2=O)C1=O` (stereo not drawn) [MD15]: the “degradation [%] 2 μM” value at MIF [1] (12 h) is “not capable of inducing MIF degradation and n.s”.
Usually DC50 stands for the concentration at which degradation of the target reaches its halfway point. Take `O=C1CCC(N2C(=O)c3cccc(NCCCCCCCC(=O)Nc4ccc(N5Cc6ccc(O)cc6OC5=O)cc4)c3C2=O)C(=O)N1` (stereo not drawn) [MD13]: the MIF degradation result on MIF [2] is given as “more than 90%”. The “degradation [%] 2 μM” value on MIF [1] (12 h) is 91% and 91±5%. Moreover, at MIF [1] (12 h, ELISA, read-out: DC50), the DC50 was roughly 200 nM. Moreover, at MIF [1] (at 20 μM, ELISA and western-blot), the Hook effect entry is “Hook effect”. Further, the “MIF depletion in situ” value at MIF [3] is recorded as “significantly depleted MIF”.
